The results in this text go back to article PMC11274943, “Discovery of Benzisothiazolone Derivatives as Bifunctional Inhibitors of HIV-1 Reverse Transcriptase DNA Polymerase and Ribonuclease H Activities” (Biomolecules, 2024).

In series [1] the target is T1, WT HIV-1 RT RNase H activity (Human immunodeficiency virus type 1 group M subtype B, UniProt P04585).
T1 construct: made in house
In words: biochemical. In kind it is biochemical. Here is the method:
WT (wild-type) RT, and RTs harboring the NNRTI-resistant mutations K101E, K103N, Y181C, Y188C, G190A and P236L, were overexpressed and purified to homogeneity as described previously. The RT concentration was determined spectrophotometrically at 280 nm using an absorbance coefficient of 260,450 M^−1·cm^−1. The 7-hydroxy tropolone derivative 19,616 (2,7-dihydroxy 2,4,6-cyclo-heptatrien-1-one) was purchased from Molecular Diversity Preservation International (Basel, Switzerland). […] The benzisothiazolone derivatives were procured from MolPort (New York, NY, USA) or Enamine (Kyiv, Ukraine). The DNA and RNA oligonucleotides were synthesized and purified by Integrated DNA Technologies (Coralville, IA, USA). All other reagents were of the highest quality available and were used without further purification.
Compounds were screened at a final concentration of 10 µM in 1× assay buffer (50 mM Tris pH 8.0, 60 mM KCl, 5 mM MgCl2) containing 1% DMSO in 384-well Greiner black polystyrene plates (VWR catalog # 82051-272). A total of 10 µL of intermediate diluted compounds (100 µM in 10% DMSO) was transferred into assay plates using the Evolution-3 (EP3) (Perkin Elmer, Waltham, MA, USA) automated liquid handling platform outfitted with a 384-well transfer head. A total of 40 µL of RT-RNase H enzyme (60 ng per well) were then dispensed into each well using the Titertek MAP-C2 reagent dispenser platform (Huntsville, AL, USA). A total of 50 µL of the RNA/DNA duplex (140 nM) substrate was then dispensed into each well using the MAP-C2 dispenser, and the assay plates were then incubated at room temperature for 20 min. After 20 min, the assay was terminated by the addition of 10 µL of 1 M EDTA pH 9.0 stop buffer. Relative fluorescent unit (RFU) signals, Excitation 490 nm and Emission 528 nm (Cutoff 515 nm), were captured on the Spectromax M5e plate reader (Molecular Devices, Menlo, CA, USA). […] The template also calculated the plate signal-to-background (S:B) ratios (mean maximum signal/mean minimum signal) and Z’-factor coefficient HTS performance statistics.
(§1) The following RNA/DNA T/P substrate was used in the present study: an 18-nucleotide RNA template (RNA-18T: 5′-[…]-3′) was annealed to an 18-nucleotide primer (DNA-18T: 5′-[…]-3′), as described previously. Fluorescein and IowaBlack FQTM were covalently attached to the 3′- and 5′-ter-mini of the RNA and DNA oligonucleotides, respectively.
(§2) The FRET-based RNase H cleavage assays were carried out as described previously. Fluorescence was measured with a SpectraMax M2 microplate spectrofluorometer (Molecular Devices, San Jose, CA, USA) using an excitation wavelength of 490 nm and an emission wavelength of 528 nm. Data were analyzed using SoftMax Pro software, version 4.7.1 (Molecular Devices, San Jose, CA, USA).
We implemented a rapid, robust and inexpensive fluorescence-based 384-well assay for the measurement of RT RNase H activity, previously described by Parniak et al.. The substrate comprises an 18-nucleotide 3′-fluorescein-labeled heteropolymeric RNA annealed to a complementary 5′-dabcyl-modified DNA. RT cleaves the RNA strand of this substrate close to the 3′ end, promoting the dissociation of the fluorescein-labeled RNA fragment and generating a detectable fluorescent signal. We used this HTS assay to screen 65,239 compounds at a final concentration of 10 µM.

Series [2] addresses T2, K103N HIV-1 RT RNase H activity (Human immunodeficiency virus type 1 group M subtype B, UniProt P04585, K690N).
T2 construct: made in house
Briefly: FRET-based RT RNase H cleavage assay, K103N RT. It is filed as biochemical. Here is the method:
(§3) WT (wild-type) RT, and RTs harboring the NNRTI-resistant mutations K101E, K103N, Y181C, Y188C, G190A and P236L, were overexpressed and purified to homogeneity as described previously. The RT concentration was determined spectrophotometrically at 280 nm using an absorbance coefficient of 260,450 M^−1·cm^−1. The 7-hydroxy tropolone derivative 19,616 (2,7-dihydroxy 2,4,6-cyclo-heptatrien-1-one) was purchased from Molecular Diversity Preservation International (Basel, Switzerland). Nevirapine was purchased from Selleckchem (Houston, TX, USA). The benzisothiazolone derivatives were procured from MolPort (New York, NY, USA) or Enamine (Kyiv, Ukraine). The DNA and RNA oligonucleotides were synthesized and purified by Integrated DNA Technologies (Coralville, IA, USA). All other reagents were of the highest quality available and were used without further purification.
as §1, §2

Series [3] has as its system K103N HIV-1 RT RNase H activity. Briefly: FRET-based RT RNase H cleavage assay, K103N RT. In kind it is biochemical. The note with it: K103N RT; fold resistance IC50 mutant/IC50 WT. Here is the method: as §3, §1, §2
In series [4] the target is T3, G190A HIV-1 RT RNase H activity (Human immunodeficiency virus type 1 group M subtype B, UniProt P04585, G777A).
T3 construct: made in house
Briefly: FRET-based RT RNase H cleavage assay, G190A RT. It is filed as biochemical. Here is the method:
as §3, §1, §2

The target in series [5] is T4, K101E HIV-1 RT RNase H activity (Human immunodeficiency virus type 1 group M subtype B, UniProt P04585, K688E).
T4 construct: made in house
In words: FRET-based RT RNase H cleavage assay, K101E RT. It is filed as biochemical. How it is done: as §3, §1, §2

Series [6] deals with K101E HIV-1 RT RNase H activity. Briefly: FRET-based RT RNase H cleavage assay, K101E RT. Conditions: K101E RT; fold resistance IC50 mutant/IC50 WT. In kind it is biochemical. How it is done:
as §3, §1, §2

Series [7] deals with T5, Y188C HIV-1 RT RNase H activity (Human immunodeficiency virus type 1 group M subtype B, UniProt P04585, Y775C).
T5 construct: made in house
Briefly: FRET-based RT RNase H cleavage assay, Y188C RT. In kind it is biochemical. Here is the method:
as §3, §1, §2

The subject of series [8] is Y188C HIV-1 RT RNase H activity. Briefly: FRET-based RT RNase H cleavage assay, Y188C RT. It is filed as biochemical. The note with it: Y188C RT; fold resistance IC50 mutant/IC50 WT. Here is the method: as §3, §1, §2
The target of series [9] is T6, P236L HIV-1 RT RNase H activity (Human immunodeficiency virus type 1 group M subtype B, UniProt P04585, P823L).
T6 construct: made in house
Briefly: FRET-based RT RNase H cleavage assay, P236L RT. In kind it is biochemical. How it is done: as §3, §1, §2

In series [10] the test system is P236L HIV-1 RT RNase H activity. Briefly: FRET-based RT RNase H cleavage assay, P236L RT. It is filed as biochemical. Conditions: P236L RT; fold resistance IC50 mutant/IC50 WT. How it is done: as §3, §1, §2
A further series deals with HIV-1. In words: Antiviral activity (HIV-1 replication) in TZM-bl cells. It is filed as cell-based. Conditions: Human immunodeficiency virus 1, mean ± SD. Here is the method:
The genes for Y181C, Y181I, Y181V and Y181F were cloned into HIV-1LAI. NNRTI susceptibility was determined in TZM-bl cells, as described previously.
(§4) Next, we re-purchased 10 hit compounds with IC50 values < 1.0 µM for the inhibition of RT RNase H activity that were commercially available in sufficient quantities for further analysis. We assessed their antiviral activity and cytotoxicity in TZM-bl cells, as described previously.

Series [11] in a line: Cytotoxicity in TZM-bl cells. In kind it is cell-based. Conditions: human, TZM-bl cell death. How it is done: as §4

“And” between values parts separate entries of the source, which are not always exact repeats. Equal values may be shown once.

Usually IC50 stands for the concentration at which inhibition is half-maximal. Read a high IC50 as lower potency. One may read the EC50 as the concentration needed to bring the measured effect to its halfway point. Broadly, the CC50 is the concentration that lowers cell viability or growth by half. High values mean better tolerance by the cells, low ones harm at low concentration. Regarding `Cc1ccc(-n2sc3ccccc3c2=O)cc1S(=O)(=O)N1CCCCC1` [Compound 1, 2-(4-methyl-3-(piperidin-1-ylsulfonyl)phenyl)benzo[d]isothiazol-3(2H)-one], the concentration for half-maximal inhibition (IC50) came to 160 ± 30 nM in series [1]; 340 ± 40 nM in [2]; 210 ± 20 nM in series [4]; 250 ± 60 nM in [5]; 320 ± 10 nM in series [7]; 220 ± 10 nM in series [9]. Moreover, the “Inhibition of RT RNase H Activity Fold-R” value in series [3] is 2 and 2.1; in series [6], 1.6; in series [8] it was 2.0; in series [10], 1.4. This compound also returned an EC50 in the series on HIV-1 of 1680 ± 940 nM. Also, the CC50 in [11] is ≥ 100000 nM.

`CCOC(=O)Cc1csc(-n2sc3ccccc3c2=O)n1` [Compound 2, ethyl 2-(2-(3-oxobenzo[d]isothiazol-2(3H)-yl)thiazol-4-yl)acetate]: the half-maximal inhibitory concentration (IC50) is 130 ± 40 nM in series [1]; 240 ± 120 nM in [2]; 230 ± 20 nM in [4]; 280 ± 20 nM in series [5]; 590 ± 40 nM in series [7]; 210 ± 10 nM in series [9]. The “Inhibition of RT RNase H Activity Fold-R” value in series [3] was determined as 1.8; in series [6] it was 2.2; in series [8], 4.5; in [10] it was 1.6. Further, the EC50 in the series on HIV-1 is 2680 ± 540 nM. Further, the CC50 in series [11] is ≥ 100000 nM.

Take `CCN(CC)S(=O)(=O)c1cccc(-n2sc3ccccc3c2=O)c1` [Compound 4, N,N-diethyl-3-(3-oxobenzo[d]isothiazol-2(3H)-yl)benzenesulfonamide]: the IC50 is 260 ± 80 nM in [1]; 830 ± 230 nM in series [2]; 310 ± 40 nM in [4]; 90 ± 30 nM in series [5]; 1100 ± 320 nM in series [7]; 310 ± 40 nM in [9]. Besides, the “Inhibition of RT RNase H Activity Fold-R” value in [3] stood at 3.2; in [6] it was 0.3; in series [8], 4.2; in [10] it was 1.2. This compound had a 50% effective concentration (EC50) in the series on HIV-1 of 3270 ± 490 nM. Moreover, in series [11], the 50% cytotoxic concentration (CC50) was ≥ 100000 nM.
